Patent publication US10669246B2, “Benzothiazol compounds and methods using the same for treating neurodegenerative disorders” (1ST Biotherapeutics, Inc., priority 2017, dated 2020)

Assays:
hERG = hERG (Homo sapiens (Human), UniProt Q12809); assay: hERG activity
in vivo = conditions: male, ICR, mouse, po, 5 mg/kg
[1] = Oral dose pharmacokinetic study in mice; conditions: for brain exposure compared with nilotinib: oral 5 mg/kg
Aβ25-35 induced AD mice [2] = assay: Lipid peroxidation in hippocampus homogenates of Aβ25-35 injected mice; assay type: in vivo; conditions: once daily oral dosing of 3 mg/kg and 10 mg/kg
Source text: 10 Days after ICV injection of oligomeric Aβ25-35 peptide, the hippocampus was dissected out. And lipid peroxidation level was quantified in the hippocampus homogenates. ICV injection of oligomeric Aβ25-35 peptide induced lipid peroxidation, a marker for oxidative stress. […] (FIG. 7)

[3] = system: Phosphorylation of α-synuclein at ser129; assay: Phosphorylation of α-synuclein in α-synuclein PFF induced PD model; assay type: in vivo, mice; conditions: q.d.; for reduction of phosphorylation of α-synuclein at ser129: oral
[4] = system: α-synuclein PFF induced PD mice; assay: Pole test in α-synuclein PFF induced PD mice; assay type: in vivo
Aβ25-35 induced AD mice [5] = assay: Step-through passive avoidance (STPA) test in Aβ25-35 induced AD mice; assay type: in vivo; conditions: orally once daily for 10 days; Example 4 1, 3 and 10 mg/kg, nilotinib 3 mg/kg
[6] = system: α-synuclein PFF-induced pathologic aggregation (Lewy body-like pathology); assay: α-synuclein PFF-induced pathologic aggregation; assay type: cell-based
Aβ25-35 induced AD mice [7] = assay: Y-maze spontaneous alternation in Aβ25-35 induced AD mice; assay type: in vivo; conditions: orally once daily for 10 days; Example 4 1, 3 and 10 mg/kg, nilotinib 3 mg/kg
Source text: Y-maze test as a behavioral test was used to assess memory function and the willingness of rodents to explore new environments ICV injection of oligomeric Aβ25-35 peptide triggered neurotoxic effects and behavioral deficit in Y-maze test evaluating short term memory, by measurement of spontaneous alternation, while any change of motor symptom was not observed by measurement of locomotion.

[8] = system: PFF-induced neuronal toxicity; assay: PFF-induced neuronal toxicity; assay type: cell-based; conditions: dose: 0.5, 1, 5, 10, 100 nM
Recombinant human c-Kit = Recombinant human c-Kit (Homo sapiens (Human), UniProt P10721); assay: c-KIT kinase assay (ADP-Glo); assay type: biochemical; conditions: Table 3, kinase selectivity
Experimental: ADP-Glo assay kit was purchased from Promega. Magnesium chloride (MgCl2), Manganese(II) chloride (MnCl2), Bovine serum albumin (BSA) and dimethylsulfoxide (DMSO) were purchased from Sigma-Aldrich. Tris-HCl buffer was purchased from Biosesang. c-Kit kinase and Poly (4:1 Glu, Tyr) Peptide were purchased from Signalchem.
c-Kit kinase activity was measured by Promega's ADP-Glo™ Assay.

[9] = 10 mg/kg orally once daily for 5 months

Sequence of Recombinant human c-Kit (P10721 26-976): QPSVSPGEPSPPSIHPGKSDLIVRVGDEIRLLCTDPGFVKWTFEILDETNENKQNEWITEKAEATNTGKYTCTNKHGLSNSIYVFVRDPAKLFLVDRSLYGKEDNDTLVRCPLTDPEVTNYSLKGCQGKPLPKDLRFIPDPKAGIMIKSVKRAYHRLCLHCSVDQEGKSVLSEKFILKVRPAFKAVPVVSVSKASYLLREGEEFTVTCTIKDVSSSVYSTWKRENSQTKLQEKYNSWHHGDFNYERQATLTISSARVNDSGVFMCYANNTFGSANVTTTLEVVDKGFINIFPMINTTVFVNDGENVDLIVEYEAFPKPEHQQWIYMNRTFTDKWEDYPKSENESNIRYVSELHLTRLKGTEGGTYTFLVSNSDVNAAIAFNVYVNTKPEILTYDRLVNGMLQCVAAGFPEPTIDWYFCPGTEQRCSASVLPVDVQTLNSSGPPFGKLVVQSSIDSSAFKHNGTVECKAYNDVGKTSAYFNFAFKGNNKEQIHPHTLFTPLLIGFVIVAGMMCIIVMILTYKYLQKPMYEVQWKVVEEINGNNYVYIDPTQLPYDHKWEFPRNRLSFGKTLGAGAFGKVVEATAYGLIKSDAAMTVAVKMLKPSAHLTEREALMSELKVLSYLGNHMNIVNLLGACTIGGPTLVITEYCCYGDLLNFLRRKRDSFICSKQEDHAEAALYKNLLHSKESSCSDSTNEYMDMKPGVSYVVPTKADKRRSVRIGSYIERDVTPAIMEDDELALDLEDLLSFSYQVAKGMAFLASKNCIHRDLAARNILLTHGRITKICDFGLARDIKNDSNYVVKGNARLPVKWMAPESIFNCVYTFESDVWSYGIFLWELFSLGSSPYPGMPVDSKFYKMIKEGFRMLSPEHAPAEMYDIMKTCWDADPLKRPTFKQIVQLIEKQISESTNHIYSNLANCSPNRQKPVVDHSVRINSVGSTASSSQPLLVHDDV
Sequence of hERG (Q12809 whole entry): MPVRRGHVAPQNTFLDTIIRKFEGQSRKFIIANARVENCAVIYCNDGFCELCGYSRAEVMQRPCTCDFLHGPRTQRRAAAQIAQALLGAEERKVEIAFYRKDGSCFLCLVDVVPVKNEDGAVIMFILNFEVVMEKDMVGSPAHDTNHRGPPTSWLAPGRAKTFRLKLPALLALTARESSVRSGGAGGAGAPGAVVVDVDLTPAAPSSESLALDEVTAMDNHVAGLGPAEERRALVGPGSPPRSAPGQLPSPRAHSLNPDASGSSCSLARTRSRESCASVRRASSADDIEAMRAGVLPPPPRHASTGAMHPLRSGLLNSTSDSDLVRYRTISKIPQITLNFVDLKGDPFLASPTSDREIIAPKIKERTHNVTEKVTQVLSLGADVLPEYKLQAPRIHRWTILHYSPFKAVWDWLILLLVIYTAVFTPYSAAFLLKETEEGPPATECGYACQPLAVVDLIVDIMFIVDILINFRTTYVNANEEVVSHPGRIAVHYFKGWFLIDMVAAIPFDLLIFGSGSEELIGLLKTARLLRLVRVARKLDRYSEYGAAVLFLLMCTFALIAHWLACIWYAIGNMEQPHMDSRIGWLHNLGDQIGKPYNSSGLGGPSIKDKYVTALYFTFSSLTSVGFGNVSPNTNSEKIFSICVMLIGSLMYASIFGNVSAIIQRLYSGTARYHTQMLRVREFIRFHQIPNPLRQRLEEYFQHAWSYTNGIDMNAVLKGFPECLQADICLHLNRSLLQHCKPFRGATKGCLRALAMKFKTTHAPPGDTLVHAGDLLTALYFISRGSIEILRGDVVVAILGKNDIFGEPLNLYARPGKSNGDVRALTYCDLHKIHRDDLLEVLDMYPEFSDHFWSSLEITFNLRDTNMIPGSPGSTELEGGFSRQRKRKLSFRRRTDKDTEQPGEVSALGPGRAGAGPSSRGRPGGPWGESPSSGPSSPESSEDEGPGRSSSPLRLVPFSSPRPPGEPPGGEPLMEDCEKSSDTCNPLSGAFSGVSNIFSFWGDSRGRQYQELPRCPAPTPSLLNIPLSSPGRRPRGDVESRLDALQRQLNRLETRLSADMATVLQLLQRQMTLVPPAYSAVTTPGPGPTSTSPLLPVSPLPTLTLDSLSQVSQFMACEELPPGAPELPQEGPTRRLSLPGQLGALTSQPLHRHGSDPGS

For `Cc1c(F)cncc1-c1ccc2nc(NC(=O)[C@@H]3C[C@@H]3F)sc2c1` [Example 8, (1S,2S)-2-fluoro-N-(6-(5-fluoro-4-methylpyridin-3-yl)benzo[d]thiazol-2-yl)cyclopropane-1-carboxamide], the inhibition at 10 µM (hERG) was 12.6%, the Cmax (in vivo; plasma) was 4170 ng/mL and the Tmax (in vivo; plasma) was 60 min. The PK profile [1] was “good PK profiles” and the “brain exposure compared with nilotinib” value [1] was “better brain exposure than nilotinib”.

For `Cc1ccncc1-c1ccc2nc(NC(=O)[C@@H]3C[C@@H]3F)sc2c1` [Example 4, (1S,2S)-2-fluoro-N-(6-(4-methylpyridin-3-yl)benzo[d]thiazol-2-yl)cyclopropane-1-carboxamide], the “lipid peroxidation (oxidative stress marker) in hippocampus” value (Aβ25-35 induced AD mice [2]) was “completely inhibited”, the “reduction of phosphorylation of α-synuclein at ser129” value ([3]; 3 mg/kg) was “about 50%” and the “reduction of phosphorylation of α-synuclein at ser129” value ([3]; 10 mg/kg) was roughly 80%. For the same molecule, the “improvement of pole climb down time” value ([4]; 0.3 mg/kg orally once daily for 5 months) was 50%, the “pole climb down time” value [4, 9] was “completely recovered” and the “pole climb down time” value ([4]; 0.3, 1, 3 and 10 mg/kg orally once daily for 5 months) was “recovered by treatment of Example 4 in a dose-dependent manner”. For the same molecule, the “contextual long-term memory deficits” value (Aβ25-35 induced AD mice [5]) was “very significantly and fully alleviated”, the AUC(0-inf) (in vivo; brain) was 4140 ng·h/mL and the AUC(0-inf) (in vivo; plasma) was 11400 ng·h/mL. The Cmax (in vivo; plasma) was 3590 ng/mL, the Tmax (in vivo; plasma) was 30 min and the “α-synuclein PFF-induced pathologic aggregation (Lewy body-like pathology)” value [6] was “decreased”. For the same molecule, the PK profile [1] was “good PK profiles”, the AUCINF ([1]; PO 5 mg/kg, Table 5) was 682041.7 ng·min/mL and the “brain exposure compared with nilotinib” value [1] was “better brain exposure than nilotinib”. For the same molecule, the “deficits of alternation behavior (spatial working memory)” value (Aβ25-35 induced AD mice [7]) was “very significantly and fully alleviated” and the PFF-induced neuronal toxicity [8] was “inhibited PFF-induced neuronal toxicity in a dose dependent manner”.

For `Cc1cn(-c2cc(NC(=O)c3ccc(C)c(Nc4nccc(-c5cccnc5)n4)c3)cc(C(F)(F)F)c2)cn1` [Nilotinib, nilotinib, reference compound], the “effect on phosphorylation of α-synuclein” value ([3]; 3 and 10 mg/kg) was “not effective”, the “pole climb down time” value [4, 9] was “just a slight improvement” and the “contextual long-term memory deficits” value (Aβ25-35 induced AD mice [5]) was “no significant effect”. For the same molecule, the “deficits of alternation behavior (spatial working memory)” value (Aβ25-35 induced AD mice [7]) was “partially alleviated”.

`Cc1c(O)cccc1-c1ccc2nc(NC(=O)[C@@H]3C[C@@H]3F)sc2c1` [Example 22, (1S,2S)-2-fluoro-N-(6-(3-hydroxy-2-methylphenyl)benzo[d]thiazol-2-yl)cyclopropane-1-carboxamide] showed an IC50 (Recombinant human c-Kit) of 1020 nM.

`C=C(C)c1ccc(C)c(-c2ccc3nc(NC(=O)[C@@H]4C[C@@H]4F)sc3c2)c1` [Example 17, (1S,2S)-2-fluoro-N-(6-(2-methyl-5-(prop-1-en-2-yl)phenyl)benzo[d]thiazol-2-yl)cyclopropane-1-carboxamide] gave an IC50 (Recombinant human c-Kit) greater than 10000 nM.

In the case of `Cc1ccc(O)cc1-c1ccc2nc(NC(=O)[C@@H]3C[C@@H]3F)sc2c1` [Example 14, (1S,2S)-2-fluoro-N-(6-(5-hydroxy-2-methylphenyl)benzo[d]thiazol-2-yl)cyclopropane-1-carboxamide], the IC50 (Recombinant human c-Kit) is reported as 1340 nM.

Molecule `Cc1ccncc1-c1ccc2nc(NC(=O)C3CC3)sc2c1` [Example 5, N-(6-(4-methylpyridin-3-yl)benzo[d]thiazol-2-yl)cyclopropanecarboxamide] has an AUC(0-inf) (in vivo; brain) of 1980 ng·h/mL and an AUC(0-inf) (in vivo; plasma) of 8480 ng·h/mL.

`Cc1ccncc1-c1ccc2sc(NC(=O)[C@@H]3C[C@@H]3F)nc2c1` [Example 6, (1S,2S)-2-fluoro-N-(5-(4-methylpyridin-3-yl)benzo[d]thiazol-2-yl)cyclopropane-1-carboxamide] showed an AUC(0-inf) (in vivo; brain) of 3950 ng·h/mL, a Kp (in vivo; brain/plasma) of 0.5 and an AUC(0-inf) (in vivo; plasma) of 4860 ng·h/mL.
